Data from ChEMBL document CHEMBL1201862, “PubChem BioAssay data set” (2004).
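96-well plates; 48 h exposure; 5 concentrations. Endpoints by linear interpolation between flanking doses. Not reached: highest tested concentration assigned. Here, GI50 denotes the concentration required for 50% inhibition of growth.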 Calls of active or inactive are those of the source. Rule as the data show it: active = GI50 up to about 1.1 µM and inactive = higher.

Tests used:
Experiment in all cases: NCI anticancer screen, dose series, 48 h
[1] = tested on: MOLT-4
[2] = tested on: NCI/ADR-RES
[3] = tested on: SK-OV-3
[4] = tested on: PC-3
[5] = tested on: SK-MEL-2
[6] = tested on: EKVX
[7] = tested on: OVCAR-8
[8] = tested on: NCI-H522
[9] = tested on: T47D
[10] = tested on: 786-0
[11] = tested on: A498
[12] = tested on: Hs-578T
[13] = tested on: RXF 393
[14] = tested on: HCT-15
[15] = tested on: BT-549
[16] = tested on: HCT-116
[17] = tested on: K562
[18] = tested on: M14
[19] = tested on: IGROV-1

For `O=P1(N(CCCl)CCCl)Oc2ccc(Cl)cc2C(C(Cl)(Cl)Cl)c2cc(Cl)ccc2O1` (centres undefined), the GI50 [1] was 3.24 µM (inactive), the GI50 [2] was 14.8 µM (inactive) and the GI50 [3] was 22.5 µM (inactive). For the same compound, the GI50 [4] was 4.38 µM (inactive), the GI50 [5] was 18.5 µM (inactive) and the GI50 [6] was 18.6 µM (inactive). The GI50 [7] was 25.5 µM (inactive), the GI50 [8] was 8.59 µM (inactive) and the GI50 [9] was 20 µM (inactive). For the same compound, the GI50 [10] was 12.4 µM (inactive), the GI50 [11] was 24.9 µM (inactive) and the GI50 [12] was 13.6 µM (inactive). For the same compound, the GI50 [13] was 12.7 µM (inactive), the GI50 [14] was 9.57 µM and the GI50 [15] was 29.8 µM (inactive). The GI50 [16] was 4.55 µM (inactive), the GI50 [17] was 3.72 µM (inactive) and the GI50 [18] was 18.8 µM (inactive).
With `Cc1ccc(S(=O)(=O)NC(=O)C2=C(c3ccccc3)[N-]N(C)c3nc4cccc[n+]4nc32)cc1` the GI50 [1] was 99.5 µM (inactive), the GI50 [19] was 51.4 µM (inactive) and the GI50 [2] was > 100 µM (inactive). For the same compound, the GI50 [4] was > 100 µM (inactive), the GI50 [5] was > 100 µM (inactive) and the GI50 [6] was 29.1 µM (inactive). The GI50 [7] was 51.6 µM (inactive), the GI50 [8] was 34.4 µM (inactive) and the GI50 [9] was 55.1 µM (inactive). For the same compound, the GI50 [10] was > 100 µM (inactive), the GI50 [11] was > 100 µM (inactive) and the GI50 [12] was > 100 µM (inactive). For the same compound, the GI50 [13] was > 100 µM (inactive), the GI50 [14] was greater than 100 µM and the GI50 [15] was > 100 µM (inactive). For the same compound, the GI50 [16] was > 100 µM (inactive), the GI50 [17] was > 100 µM (inactive) and the GI50 [18] was > 100 µM (inactive).
`O=c1c(Sc2ncccn2)c(Sc2ncccn2)cnn1CCl` was tested, and the GI50 [1] was 2.72 µM (inactive), the GI50 [19] was 1.17 µM (inactive) and the GI50 [2] was 4.97 µM (inactive). The GI50 [3] was 11.1 µM (inactive), the GI50 [4] was 2.48 µM (inactive) and the GI50 [5] was 2.22 µM (inactive). The GI50 [6] was 2.9 µM (inactive), the GI50 [7] was 2.08 µM (inactive) and the GI50 [8] was 0.665 µM (active). For the same compound, the GI50 [9] was 3.23 µM (inactive), the GI50 [10] was 1.87 µM (inactive) and the GI50 [11] was 19.1 µM (inactive). For the same compound, the GI50 [12] was 14.5 µM (inactive), the GI50 [13] was 1.5 µM (inactive) and the GI50 [14] was 3.02 µM. The GI50 [15] was 10.2 µM (inactive), the GI50 [16] was 1.85 µM (inactive) and the GI50 [17] was 3.39 µM (inactive). For the same compound, the GI50 [18] was 2.12 µM (inactive).
In the case of `CCN(CC)CCO/N=C1\CC[C@H]2[C@@H]3CCc4cc(OC)ccc4[C@H]3CC[C@]12C`, the GI50 [1] is reported as 1.44 µM (inactive), the GI50 [19] is reported as 3.26 µM (inactive) and the GI50 [2] is reported as 5.41 µM (inactive). The GI50 [4] was 2.64 µM (inactive), the GI50 [5] was 2.3 µM (inactive) and the GI50 [6] was 3.16 µM (inactive). For the same compound, the GI50 [7] was 2.6 µM (inactive), the GI50 [8] was 2.52 µM (inactive) and the GI50 [9] was 2.79 µM (inactive). For the same compound, the GI50 [10] was 1.59 µM (inactive), the GI50 [11] was 3.18 µM (inactive) and the GI50 [12] was 2.31 µM (inactive). For the same compound, the GI50 [13] was 1.6 µM (inactive), the GI50 [14] was 0.489 µM and the GI50 [15] was 4.56 µM (inactive). For the same compound, the GI50 [16] was 1.44 µM (inactive), the GI50 [17] was 0.685 µM (active) and the GI50 [18] was 0.467 µM (active).
With `[N-]=[N+]=NC1(c2ccccc2)C(=O)c2cccc3c4ccccc4n(c23)C1=O` (centres undefined) the GI50 [1] was 98.4 µM (inactive), the GI50 [19] was > 100 µM (inactive) and the GI50 [2] was 33.5 µM (inactive). The GI50 [3] was > 100 µM (inactive), the GI50 [4] was > 100 µM (inactive) and the GI50 [5] was > 100 µM (inactive). For the same compound, the GI50 [6] was 92.3 µM (inactive), the GI50 [7] was > 100 µM (inactive) and the GI50 [8] was 45.6 µM (inactive). For the same compound, the GI50 [9] was > 100 µM (inactive), the GI50 [10] was > 100 µM (inactive) and the GI50 [11] was > 100 µM (inactive). The GI50 [12] was > 100 µM (inactive), the GI50 [13] was > 100 µM (inactive) and the GI50 [14] was greater than 100 µM. For the same compound, the GI50 [15] was > 100 µM (inactive), the GI50 [16] was 84.3 µM (inactive) and the GI50 [18] was > 100 µM (inactive).
In the case of `CC(=O)OC1/C(=C/c2ccc([N+](=O)[O-])cc2)C[C@H]2[C@@H]3CC=C4C[C@@H](OC(C)=O)CC[C@]4(C)[C@H]3CC[C@]12C` (some centres undefined), the GI50 [19] is reported as > 100 µM (inactive), the GI50 [2] is reported as > 43 µM (inactive) and the GI50 [3] is reported as 41.4 µM (inactive). The GI50 [4] was > 100 µM (inactive), the GI50 [5] was > 61.5 µM (inactive) and the GI50 [6] was > 85.7 µM (inactive). The GI50 [7] was > 100 µM (inactive), the GI50 [8] was > 91.8 µM (inactive) and the GI50 [9] was > 100 µM (inactive). The GI50 [10] was 70.6 µM (inactive), the GI50 [11] was > 52.6 µM (inactive) and the GI50 [12] was 74.5 µM (inactive). The GI50 [13] was 20 µM (inactive), the GI50 [14] was greater than 100 µM and the GI50 [15] was > 100 µM (inactive). For the same compound, the GI50 [16] was > 100 µM (inactive) and the GI50 [18] was > 100 µM (inactive).
For `O=c1oc2c(ccc3c(O)cccc32)c2c1CCCC2`, the GI50 [1] was > 100 µM (inactive), the GI50 [19] was > 100 µM (inactive) and the GI50 [2] was 46 µM (inactive). The GI50 [4] was > 100 µM (inactive), the GI50 [5] was 3.52 µM (inactive) and the GI50 [6] was 33.8 µM (inactive). For the same compound, the GI50 [7] was 30.6 µM (inactive), the GI50 [8] was 40 µM (inactive) and the GI50 [9] was 80.9 µM (inactive). The GI50 [10] was 33.4 µM (inactive), the GI50 [11] was 27.7 µM (inactive) and the GI50 [12] was 7.46 µM (inactive). The GI50 [13] was 14.5 µM (inactive), the GI50 [15] was 15.1 µM (inactive) and the GI50 [16] was > 100 µM (inactive). The GI50 [17] was > 100 µM (inactive) and the GI50 [18] was > 100 µM (inactive).
In the case of `Nc1ccc(-c2nc3cc(F)ccc3s2)cc1`, the GI50 [1] is reported as > 82.2 µM (inactive), the GI50 [19] is reported as 13 µM (inactive) and the GI50 [2] is reported as > 100 µM (inactive). For the same compound, the GI50 [3] was > 94.2 µM (inactive), the GI50 [4] was 16.5 µM (inactive) and the GI50 [5] was 30.8 µM (inactive). The GI50 [6] was 2 µM (inactive), the GI50 [7] was > 95.9 µM (inactive) and the GI50 [8] was 53.5 µM (inactive). For the same compound, the GI50 [9] was 0.424 µM (active), the GI50 [10] was > 85.3 µM (inactive) and the GI50 [11] was 33.5 µM (inactive). For the same compound, the GI50 [12] was 37.7 µM (inactive), the GI50 [13] was 32.3 µM (inactive) and the GI50 [14] was 17.6 µM. The GI50 [15] was > 100 µM (inactive), the GI50 [16] was > 69.8 µM (inactive) and the GI50 [17] was > 100 µM (inactive). For the same compound, the GI50 [18] was 71.6 µM (inactive).
